In patent US5840690A, “Regulation of cell proliferation and differentation using peptides” (priority 1995, dated 1998):
Non-standard residues stand in square brackets, D forms with d. Residues, ends and D or L forms follow the SMILES beside them. Nle = CCCC[C@H](N)C(=O)O

Legend:
[1] = test system: canine adenylate cyclase system; conditions: cited from earlier work
[2] = test system: cultured human keratinocytes; assay: Keratinocyte culture: counts of total cells, basal cells and cornified envelopes; type: cell-based; conditions: for total number of basal cells: one week of dosing; for proliferation and terminal differentiation of cultured human keratinocytes (conclusion from the results): peptide by itself
Procedure: Keratinocytes were grown in culture as follows. NIH 3T3 cells were plated at 0.5×10^5 cells per 35-mm tissue-culture dish, and two days later were lethally irradiated with a cobalt-60 source (5000 rads). Keratinocytes were obtained from neonatal foreskin after overnight trypsinization at 4° C. and treatment with 0.02% EDTA. Keratinocytes were plated in 2 ml of serum-free medium per dish on the lethally irradiated 3T3 cells. Each experiment was performed on primary or secondary keratinocyte cultures obtained from different skin samples.
In addition, 1,25-(OH)2 D3 was tested, alone and in combination with PTH (7-34), and PTH (1-34) and PTH (7-34) were tested together.
Beginning at one week in culture, groups of triplicate plates of keratinocytes were incubated with the aforementioned compounds or vehicle alone. After one week of dosing, the medium was removed from each culture and centrifuged, and the pellet was resuspended for the counting of the desquamated floater cells. A hemacytometer was used to count the different cell types under a phase-contrast microscope. The attached cells were then trypsinized for 30-40 min with 0.1 EDTA and 0.1% trypsin and then neutralized with medium. The keratinocytes were pelleted and resuspended in a known volume of medium. Duplicate aliquots were taken for counting the basal (small, rounded) and squamous (larger, irregular-shaped, flattened) cells. The remaining cells were pelleted and treated with 10 mM Tris-HCl (pH 7.4) with 1% beta-mercaptoethanol and 1% sodium dodecyl sulfate (SDS) at room temperature for 10 min. Only cells with cornified envelopes were present after this treatment.
Each culture was thus evaluated for its total cell content, number of basal cells, and cornified envelopes, as described above.

[3] = test system: wounds made through the skin with a 6 mm dermal biopsy punch; assay: In vivo skin punch assay; set-up: species or system Sprague-Dawley rats; conditions: rats, 2.0 μg topically in normal saline, immediately after biopsy and each day for 3 days, FIG. 8
Procedure: Male Sprague-Dawley rats were anesthetized by intraperitoneal injection of sodium pentobarbital, their dorsal skin shaved, and wounds made through the skin with a 6 mm dermal biopsy punch. Immediately after the biopsy, and each subsequent day for 3 days, groups of rats received topically 2.0 μg of human PTH (1-34) in normal saline or human PTH (7-34) in normal saline; a control group received normal saline without peptide. Four rats from each group were killed by asphyxiation in a chamber of carbon dioxide, and the extent of wound healing was evaluated as follows. Wounds were photographed with the wound surface perpendicular to the axis of the lens. After development of the film, wound images were projected on to paper at a fixed distance, traced with a pencil, and cut out with sharp scissors. The relative sizes of the wounds were assessed by weighing the cut-out paper tracings. Percent healing was calculated from the average decrease in wound area for each group.

[4] = test system: PTH-mediated elevation of plasma calcium; conditions: cited from earlier work
[5] = test system: PTH-stimulated biologic responses; conditions: cited from earlier work
psoriasis = conditions: provided either orally or topically; cited from earlier work
[6] = test system: hair obtained from human subjects; assay: In vitro hair growth assay; type: cell-based
Description: Candidate peptides may be screened for their ability to stimulate hair growth as follows. […] Hair is sampled from 4 sites of the scalp (frontal, occipital, temporal, and nuchal) and the following body areas: beard, axilla, pubic, chest, forearm, and leg, using the method described by van Scott et al. (J. Invest. Derm. 29: 197, 1957). Immediately after plucking, the hairs are placed in chilled Krebs-Ringer phosphate buffer, pH 7.4. Growing (anagen) and resting (telogen) hairs are differentiated either by gross examination or under low microscopic magnification. Generally, 2 to 4 anagen hairs and 10 to 30 telogen hairs are incubated in duplicate, in 2 ml. centrifuge tubes, in a total volume of 1 ml of incubation mixture consisting of Krebs-Ringer phosphate buffer, pH 7.4, glucose (9 mM), and candidate peptide; control incubation mixture lacks peptide. Samples are incubated with shaking at 37° C. in an air atmosphere. […]
DNA content is determined by the method of Kissane and Robins (J. Biol. Chem. 233: 184, 1958) as modified by Santoianni and Ayala (J. Invest. Derm. 45: 99, 1965). […] Fluorescence is asssayed on an Aminco-Bowman Spectrofluorometer with the excitation wavelength set at 396 nm and the emission wavelength at […]. […] Routinely, standards containing 0.1, 0.4, 0.8, 1.2, 1.6, and 3.2 μg of DNA, and a blank are read with the samples.

[7] = peptide alone at 10^-8 M and 10^-7 M
[8] = PTH (7-34) together with the agonist

Parathyroid Hormone (1-34), Rat [Rat PTH (1-34)]
activity relative to bovine PTH (1-34) [1]: 2-4 fold | activity relative to human PTH (1-34) [1]: 8-10 fold

CC[C@H](C)[C@H](NC(=O)[C@H](CCC(=O)O)NC(=O)[C@H](CO)NC(=O)[C@@H](NC(=O)[C@@H](N)CO)C(C)C)C(=O)N[C@@H](CCC(N)=O)C(=O)N[C@@H](CC(C)C)C(=O)N[C@@H](CCSC)C(=O)N[C@@H](Cc1c[nH]cn1)C(=O)N[C@@H](CC(N)=O)C(=O)N[C@@H](CC(C)C)C(=O)NCC(=O)N[C@@H](CCCCN)C(=O)N[C@@H](Cc1c[nH]cn1)C(=O)N[C@@H](CC(C)C)C(=O)N[C@@H](CC(N)=O)C(=O)N[C@@H](CO)C(=O)N[C@@H](CCSC)C(=O)N[C@@H](CCC(=O)O)C(=O)N[C@@H](CCCNC(=N)N)C(=O)N[C@H](C(=O)N[C@@H](CCC(=O)O)C(=O)N[C@@H](Cc1c[nH]c2ccccc12)C(=O)N[C@@H](CC(C)C)C(=O)N[C@@H](CCCNC(=N)N)C(=O)N[C@@H](CCCCN)C(=O)N[C@@H](CCCCN)C(=O)N[C@@H](CC(C)C)C(=O)N[C@@H](CCC(N)=O)C(=O)N[C@@H](CC(=O)O)C(=O)N[C@H](C(=O)N[C@@H](Cc1c[nH]cn1)C(=O)N[C@@H](CC(N)=O)C(=O)N[C@@H](Cc1ccccc1)C(=O)O)C(C)C)C(C)C [PTH (1-34), Parathyroid Hormone (1-34), Human]
growth of human cultured keratinocytes ([2]; 10^-7 and 10^-8 M): inhibits growth | terminal differentiation of human cultured keratinocytes ([2]; 10^-7 and 10^-8 M): induces terminal differentiation | total number of cornified envelopes, percent of control ([2]; compound alone, FIGS. 6 and 7): increased, in a dose-dependent manner | total number of basal cells [2, 7]: significantly decreased | proliferation and terminal differentiation of cultured human keratinocytes (conclusion from the results) [2]: biologically effective in inhibiting the proliferation of cultured human keratinocytes and inducing terminal differentiation | wound healing (percent healing from decrease in wound area) [3]: biologically effective in enhancing wound healing | wound healing (percent healing from decrease in wound area) ([3]; listed as human PTH (1-34)): enhance wound healing

CSCC[C@H](NC(=O)[C@H](CO)NC(=O)[C@H](CO)NC(=O)[C@H](CC(C)C)NC(=O)[C@H](Cc1c[nH]cn1)NC(=O)[C@H](CCCCN)NC(=O)CNC(=O)[C@H](CC(C)C)NC(=O)[C@H](CC(N)=O)NC(=O)[C@H](Cc1c[nH]cn1)NC(=O)[C@H](CCSC)NC(=O)[C@@H](N)Cc1ccccc1)C(=O)N[C@@H](CCC(=O)O)C(=O)N[C@@H](CCCNC(=N)N)C(=O)N[C@H](C(=O)N[C@@H](CCC(=O)O)C(=O)N[C@@H](Cc1c[nH]c2ccccc12)C(=O)N[C@@H](CC(C)C)C(=O)N[C@@H](CCCNC(=N)N)C(=O)N[C@@H](CCCCN)C(=O)N[C@@H](CCCCN)C(=O)N[C@@H](CC(C)C)C(=O)N[C@@H](CCC(N)=O)C(=O)N[C@@H](CC(=O)O)C(=O)N[C@H](C(=O)N[C@@H](Cc1c[nH]cn1)C(=O)N[C@@H](CC(N)=O)C(=O)N[C@@H](Cc1ccc(O)cc1)C(N)=O)C(C)C)C(C)C [PTH (7-34), [Tyr^34] bovine PTH (7-34) amide]
keratinocyte antiproliferative and terminal differentiation-inducing activities of 1,25(OH)2 D3 ([2]; PTH (7-34) against 1,25(OH)2 D3): blocks | antiproliferative and differentiation-inducing activities of PTH (1-34) and CFF (1-34) (antagonist) ([2]; PTH (7-34) against PTH (1-34) and CFF (1-34)): blocks | response to 1,25(OH)2 D3 (cell numbers) ([2]; PTH (7-34) at 10^-7 M co-incubated with 1,25(OH)2 D3 at 10^-8 M): significantly decreased the response | effect of PTH (1-34) and CFF (1-34) on total number of cells and total number of basal cells ([2]; PTH (7-34) co-incubated with hPTH (1-34) or CFF (1-34)): inhibited the effect | antiproliferative and differentiation-inducing activities of each of 1,25(OH)2 D3, PTH (1-34), and CFF (1-34) (conclusion) [2, 8]: can block | effect of 1,25(OH)2 D3, PTH (1-34), and CFF (1-34) on cornified envelope development [2, 8]: inhibited the effect | total number of cornified envelopes, percent of control [2, 7]: no effect | total number of basal cells [2, 7]: no effect | proliferation and terminal differentiation of cultured human keratinocytes (conclusion from the results) [2]: substantially no effect | wound healing (percent healing from decrease in wound area) [3]: biologically effective in enhancing wound healing | PTH-like agonist activity ([4]; rat, in vivo): devoid of PTH-like agonist activity | PTH-mediated elevation of plasma calcium ([4]; thyroparathyroidectomized rats in vivo): can inhibit

CCCC[C@H](NC(=O)[C@H](CO)NC(=O)[C@H](CO)NC(=O)[C@H](CC(C)C)NC(=O)[C@H](Cc1c[nH]cn1)NC(=O)[C@H](CCCCN)NC(=O)CNC(=O)[C@H](CC(C)C)NC(=O)[C@H](CC(N)=O)NC(=O)[C@H](Cc1c[nH]cn1)NC(=O)[C@H](CCCC)NC(=O)[C@H](Cc1ccccc1)NC(=O)[C@H](CCC(N)=O)NC(=O)[C@@H](NC(=O)[C@H](CCC(=O)O)NC(=O)[C@@H](N)CO)[C@@H](C)CC)C(=O)N[C@@H](CCC(=O)O)C(=O)N[C@@H](CCCNC(=N)N)C(=O)N[C@H](C(=O)N[C@@H](CCC(=O)O)C(=O)N[C@@H](Cc1c[nH]c2ccccc12)C(=O)N[C@@H](CC(C)C)C(=O)N[C@@H](CCCNC(=N)N)C(=O)N[C@@H](CCCCN)C(=O)N[C@@H](CCCCN)C(=O)N[C@@H](CC(C)C)C(=O)N[C@@H](CCC(N)=O)C(=O)N[C@@H](CC(=O)O)C(=O)N[C@H](C(=O)N[C@@H](Cc1c[nH]cn1)C(=O)N[C@@H](CC(N)=O)C(=O)N[C@@H](Cc1ccc(O)cc1)C(N)=O)C(C)C)C(C)C [PTH (3-34), [Nle^8, Nle^18, Tyr^34] bovine (3-34) PTH amide] (H-SEIQF[Nle]HNLGKHLSS[Nle]ERVEWLRKKLQDVHNY-NH2)
total number of cornified envelopes, percent of control ([2]; compound alone, FIGS. 6 and 7): increased, in a dose-dependent manner | proliferation of keratinocytes (agonist) ([2]; concentration not given): inhibits proliferation | terminal differentiation of keratinocytes (agonist) ([2]; concentration not given): induces terminal differentiation | total number of basal cells ([2]; peptide alone at 10^-10 and 10^-8 M): significantly decreased | proliferation and terminal differentiation of cultured human keratinocytes (conclusion from the results) [2]: have the same effect as PTH (1-34) | PTH-stimulated biologic responses in vitro [5]: can be inhibited

C=C1/C(=C\C=C2/CCC[C@]3(C)[C@@H]([C@H](C)CC[C@@H](O)C(C)C)CC[C@@H]23)C[C@@H](O)C[C@@H]1O [1,24-dihydroxyvitamin D3]
value in the treatment of psoriasis (psoriasis): of value in the treatment of psoriasis

human PTH (7-34): human PTH (7-34), applied topically in normal saline in the skin punch assay; stimulates hair growth in vitro (LMHNLGKHLNSMERVEWLRKKLQDVHNF; Parathyroid hormone; UniProt P01270 38-65, looked up, fragment)
hair growth in vitro [6]: stimulates hair growth | wound healing (percent healing from decrease in wound area) [3]: enhance wound healing
